Results on three molecules are retold here after article PMC4280904 (Journal of Veterinary Pharmacology and Therapeutics, 2014).

Common to all, as to design: species or system Wistar rats
The subject of series [1] is NAT2. In words: In vivo enzyme induction: N-acetyltransferase, procainamide. The settings on record: rats, 20 mg/kg i.p. once daily 7 days.
Series [2] has as its system CYP2B. In words: In vivo enzyme induction: pentylresorufin O-depentylase. The settings on record: rats.
Series [3] concerns CYP2A. In words: In vivo enzyme induction: ethoxycoumarin O-deethylase. The settings on record: rats.
For series [4], the system named is CYP3A. Briefly: In vivo enzyme induction: erythromycin N-demethylase. Conditions: rats, 40 mg/kg p.o. once daily 7 days.
The test system of series [5] is CYP1A. Briefly: In vivo enzyme induction: ethylresorufin O-deethylase. Conditions: rats.
Setting [6] is: 40 mg/kg p.o. once daily 7 days.
Where [7] appears, read: 40 mg/kg i.p. once daily 7 days.

Regarding `C[C@@H]1C[C@H]2[C@@H]3CCC4=CC(=O)C=C[C@]4(C)[C@@]3(F)[C@@H](O)C[C@]2(C)[C@@]1(O)C(=O)CO` [Dexamethasone, dexamethasone, reference compound], in series [1], the “NAT2 activity compared with untreated controls” value was determined as 1.8 fold.
As to `CCC1(c2ccccc2)C(=O)NC(=O)NC1=O` [Phenobarbital, phenobarbital], in series [2] (setting [6]), the “CYP2B enzyme activity relative to control” value is recorded as 17.7 fold. For the same molecule, in series [3] (setting [6]), the “CYP2A enzyme activity relative to control” value was found to be 2.6 fold. Further, in series [4], the “CYP3A enzyme activity relative to control” value is on record as 3.5 fold. The “CYP1A enzyme activity relative to control” value in series [5] (setting [6]) came out at 5.5 fold.
In the case of `O=c1cc(-c2ccccc2)oc2ccc3ccccc3c12` [β-naphthoflavone], the “CYP2B enzyme activity relative to control” value in series [2] (setting [7]) is given as 3.8 fold. Further, in series [3] (setting [7]), the “CYP2A enzyme activity relative to control” value came out at 15.8 fold. Further, the “CYP1A enzyme activity relative to control” value in series [5] (setting [7]) turned out to be 25.1 fold.
